Numbers after ± are expanded uncertainties.
Tests used:
[1] = 298.15 K; 101.33 kPa; Liquid; Vibrating tube method
[2] = refractive index (Na D-line) (dimensionless); conditions: 293.15 K; 101.33 kPa; Liquid; Standard Abbe refractometry

mass density [1] | refractive index [2] | SMILES
894.6 ± 0.2 kg/m3 | 1.3701 ± 0.0008 | CCOC(C)=O [ethyl acetate]
971.7 ± 0.2 kg/m3 | 1.4489 ± 0.0008 | CC(=O)CC(C)=O [2,4-pentanedione]
996.8 ± 0.2 kg/m3 | 1.3327 ± 0.0008 | O [water]
773.4 ± 0.2 kg/m3 | 1.4259 ± 0.0008 | C1CCCCC1 [cyclohexane]

Reference: the NIST ThermoML archive (doi:10.1021/je100704j)
